Measurements from patent publication US20230172831A1, “COSMETIC” (SHIN-ETSU CHEMICAL CO., LTD., priority 2020, published 2023).
Like-named read-outs stand apart in the source and are kept apart here.

Tests used:
[1] = Solubility test of ethylhexyl methoxycinnamate in silicones; format: physicochemical; design: key to dissolution state: “good” indicates dissolution; “poor” indicates separation; conditions: for dissolution state: shaken 24 hours, observed after 12 days at room temperature
Experimental: Ethylhexyl methoxycinnamate (sometimes referred to as OMC) and each silicone (sometimes referred to as Sx) weighed at a mass ratio shown in Table 1 were shaken and mixed at room temperature for 24 hours. After 12 days at room temperature, the dissolution state was observed. For each dissolution state, “good” indicates dissolution, and “poor” indicates separation.

[2] = Solubility of oily component solid at 25° C. and crystallization test (polyethylene); format: physicochemical; design: key to dissolution state: excellent: “Excellent” indicates uniform dissolution; “good” indicates dispersion; “poor” indicates separation; conditions: for average penetration score: Polyethylene:silicone 1:9, solidified at 25° C. for 2 days, 1/4 cone, after 5 seconds, average of five, larger value means softer; for dissolution state: Polyethylene:silicone mass ratio 1:9, heated at 105° C. for 20 minutes, visual observation
Experimental: (§1) Oily components being solid at 25° C. and silicones weighed at a mass ratio of 1:9 were heated at 105° C. for 20 minutes to observe the dissolution state. Then, each heated mixture solution was placed in an aluminum cup, allowed to stand at 25° C. for 2 days, and solidified. The penetration score of the solid was measured with a rheometer. The dissolution states according to the visual observation during the heating were shown as follows. “Excellent” indicates uniform dissolution, “good” indicates dispersion, and “poor” indicates separation.
(§2) Moreover, in the rheometer measurement, an automatic cone-penetration measurement test apparatus RPM-101 (manufactured by RIGOSHA CO., LTD.) was used, a ¼ cone was set, and a penetration score after 5 seconds was measured five times. […] A larger value means a softer material.

[3] = Solubility of oily component solid at 25° C. and crystallization test (stearyl alcohol); format: physicochemical; design: key to dissolution state: excellent: “Excellent” indicates uniform dissolution; “good” indicates dispersion; “poor” indicates separation; conditions: for average penetration score: Stearyl alcohol:silicone 1:9, solidified at 25° C. for 2 days, 1/4 cone, after 5 seconds, average of five, larger value means softer; for dissolution state: Stearyl alcohol:silicone mass ratio 1:9, heated at 105° C. for 20 minutes, visual observation
Experimental: as §1, §2

[4] = known value given for comparison; cited from earlier work
[5] = format: physicochemical
Experimental: (§3) A 1-L four-necked flask was charged with 282.6 g of 1,1,1,3,5,7,7,7-octamethyltetrasiloxane and 1.4 mg of chloroplatinic acid. An ethylene gas was blown into the mixture under stirring, and a hydrosilylation reaction took place while the temperature was held at […]. The reaction was monitored by gas chromatography. When it was observed that the proportion of a target reached 95% or more, the reaction was terminated. Distillation under reduced pressure (120° C., 10 mmHg) was performed to obtain 3,5-diethyl-1,1,1,3,5,7,7,7-octamethyltetrasiloxane as the target. The boiling point was 227° C. and the viscosity was 2.2 mm^2/s.

[6] = Viscosity (kinematic viscosity, Ostwald viscometer); format: physicochemical
Experimental: Further, since the viscosity of the organosiloxane in the present invention is less than 5 mm^2/s (25° C.), favorable applicability and spreadability are sensed in the same manner as in cases of using decamethylcyclopentasiloxane having a viscosity of 4 mm^2/s (25° C.), or the like. Additionally, the feeling on use is favorable without provoking considerable sticky feeling. If the viscosity is 5 mm^2/s (25° C.) or higher, this causes poor spreading, sticky feeling is provoked, and the feeling on use is poor. Note that the viscosity (kinematic viscosity) values are measured using an Ostwald viscometer.
as §3

## C[Si](C)(C)O[Si](C)(C)O[Si](C)(C)O[Si](C)(C)C [KF-96L-1.5cs, decamethyltetrasiloxane]
[1]; Ratio of OMC:Sx 1:1 (mass)
  dissolution state: poor

## C[Si]1(C)O[Si](C)(C)O[Si](C)(C)O[Si](C)(C)O[Si](C)(C)O[Si](C)(C)O1 [Example D6, dodecamethylhexasiloxane]
[2]
  average penetration score: 21.0
[3]
  average penetration score: 31.5
[4]
  boiling point: 245 °C

## C[Si](C)(C)O[Si](C)(C)O[Si](C)(C)C [KF-96L-1cs, octamethyltrisiloxane]
[1]; Ratio of OMC:Sx 1:1 (mass)
  dissolution state: poor
[2]
  average penetration score: 30.7
  dissolution state: good
[3]
  average penetration score: 31.7
  dissolution state: excellent

## CC[Si](C)(O[Si](C)(C)C)O[Si](C)(CC)O[Si](C)(C)C (centres unmarked) [Sx of Production Example 1, 3,5-Diethyl-1,1,1,3,5,7,7,7-octamethyltetrasiloxane]
[1]; Ratio of OMC:Sx 1:1 (mass)
  dissolution state: good
[1]; Ratio of OMC:Sx 4:6 (mass)
  dissolution state: good
[1]; versus KF-96L-1cs, KF-96L-1.5cs, KF-96L-2cs, TMF-1.5, KF-995, D6
  Dissolution of ethylhexyl methoxycinnamate compared with other silicones: dissolved ethylhexyl methoxycinnamate to higher extent
[2]
  average penetration score: 33.7
  dissolution state: excellent
[3]
  average penetration score: 49.5
  dissolution state: excellent
[5]
  boiling point: 227 °C
[6]
  viscosity: 2.2 mm^2/s

## C[Si]1(C)O[Si](C)(C)O[Si](C)(C)O[Si](C)(C)O[Si](C)(C)O1 [D5:KF-995, decamethylpentasiloxane]
[2]
  average penetration score: 22.4
[3]
  average penetration score: 34.4
[4]
  boiling point: 210 °C

## undecamethylpentasiloxane [KF-96L-2cs]
[1]; Ratio of OMC:Sx 1:1 (mass)
  dissolution state: poor
[2]
  average penetration score: 18.6
  dissolution state: Poor
[3]
  average penetration score: 34.6
  dissolution state: excellent
